Reference: patent US11078170B2 (Assembly Biosciences, Inc., priority 2017, dated 2021)

Each compound was assayed on HBV viral production from HepAD38 cells (assay: Activity of test compounds on viral production from HepAD38 cells (viral load by qPCR of HBV core sequence in supernatant)). Conditions: Hepatitis B virus, 120 h, 5 days incubation, HBV DNA in supernatant by qPCR, top concentration 10 μM, read-out: Viral Load EC50 Activity range.
Type: cell-based
Method in brief: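 HepAD38 cells, 50,000/well in tetracycline-free 2% FBS medium, treated 5 days at 37° C. with compound from 10 μM top concentration. HBV DNA in supernatant quantified by TaqMan qPCR of core sequence against DNA standards, relative to DMSO wells; CellTiter-Glo viability read in parallel. EC50/CC50 from four-parameter logistic fit.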

| SMILES | EC50 |
| --- | --- |
| CN1[C@@H](C(=O)Nc2ccc(F)c(Cl)c2)C[C@@H](c2cc(-c3cnn(CCO)c3)cs2)NS1(=O)=O [HBV-CSU-296-ISO-II, Cis-N-(3-chloro-4-fluorophenyl)-5-(4-(1-(2-hydroxyethyl)-1H-pyrazol-4-yl)thiophen-2-yl)-2-methyl-1,2,6-thiadiazinane-3-carboxamide 1,1-dioxide] | 1000 to 5000 nM |
| CN1C(C(=O)Nc2ccc(F)c(Cl)c2)CC(c2ccc(Cl)cc2)NS1(=O)=O (stereo not drawn) [HBV-CSU-265, Cis-N-(3-Chloro-4-fluorophenyl)-5-(4-chlorophenyl)-2-methyl-1,2,6-thiadiazinane-3-carboxamide 1,1-dioxide] | < 1000 nM |
| CN1[C@H](C(=O)Nc2ccc(F)c(Cl)c2)C[C@H](c2ncc(-c3ccnn3C)s2)NS1(=O)=O [HBV-CSU-281-ISO-I, Cis-N-(3-Chloro-4-fluorophenyl)-2-methyl-5-(5-(1-methyl-1H-pyrazol-5-yl)thiazol-2-yl)-1,2,6-thiadiazinane-3-carboxamide 1,1-dioxide] | < 1000 nM |
| O=C(Nc1ccc(F)c(Cl)c1)[C@H]1C[C@@H](c2nccs2)NS(=O)(=O)N1CCCN1CCCC1 [HBV-CSU-102-ISO-I, Cis-N-(3-Chloro-4-fluorophenyl)-2-(3-(pyrrolidin-1-yl)propyl)-5-(thiazol-2-yl)-1,2,6-thiadiazinane-3-carboxamide 1,1-dioxide] | > 5000 nM |
| CN1C(C(=O)Nc2ccc(F)c(Cl)c2)CC(c2cc(-c3ccc(F)cn3)cs2)NS1(=O)=O (racemic) [HBV-CSU-243, Cis-N-(3-chloro-4-fluorophenyl)-5-(4-(5-fluoropyridin-2-yl)thiophen-2-yl)-2-methyl-1,2,6-thiadiazinane-3-carboxamide 1,1-dioxide] | < 1000 nM |
| COc1ccc(-c2csc(C3CC(C(=O)Nc4ccc(F)c(Cl)c4)N(C)S(=O)(=O)N3)c2)cc1 (stereo not shown) [HBV-CSU-241] | < 1000 nM |
| CN1[C@H](C(=O)Nc2ccc(F)c(Cl)c2)C[C@H](c2cc(-c3cncnc3)cs2)NS1(=O)=O [HBV-CSU-290-ISO-I, Cis-N-(3-chloro-4-fluorophenyl)-2-methyl-5-(4-(pyrimidin-5-yl)thiophen-2-yl)-1,2,6-thiadiazinane-3-carboxamide 1,1-dioxide] | < 1000 nM |
| [2H]C1C([2H])(c2ccc(Br)s2)NS(=O)(=O)N(C([2H])([2H])[2H])C1([2H])C(=O)Nc1ccc(F)c(Cl)c1 (stereo not drawn) [HBV-CSU-372, Cis-5-(5-bromothiophen-2-yl)-N-(3-chloro-4-fluorophenyl)-2-(methyl-d3)-1,2,6-thiadiazinane-3,4,5-d3-3-carboxamide 1,1-dioxide] | < 1000 nM |
| CN1[C@@H](C(=O)Nc2ccc(F)c(Cl)c2)C[C@@H](c2cc(-c3ccccc3)cs2)NS1(=O)=O [HBV-CSU-148-ISO-II, Cis-N-(3-chloro-4-fluorophenyl)-2-methyl-5-(4-phenylthiophen-2-yl)-1,2,6-thiadiazinane-3-carboxamide 1,1-dioxide] | 1000 to 5000 nM |
| CN1[C@H](C(=O)Nc2ccc(F)c(Cl)c2)C[C@H](c2cc(-c3cccs3)cs2)NS1(=O)=O [HBV-CSU-170-ISO-I] | < 1000 nM |
| Cc1c(-c2ccc([C@H]3C[C@@H](C(=O)Nc4ccc(F)c(Cl)c4)N(C)S(=O)(=O)N3)s2)cnn1C [HBV-CSU-312-ISO-I, Cis-N-(3-chloro-4-fluorophenyl)-5-(5-(1,5-dimethyl-1H-pyrazol-4-yl)thiophen-2-yl)-2-methyl-1,2,6-thiadiazinane-3-carboxamide 1,1-dioxide] | < 1000 nM |
| CN1[C@H](C(=O)Nc2cc(F)c(F)c(F)c2)C[C@H](c2ccc(F)cc2)NS1(=O)=O [HBV-CSU-212-ISO-I, Cis-5-(4-Fluorophenyl)-2-methyl-N-(3,4,5-trifluorophenyl)-1,2,6-thiadiazinane-3-carboxamide 1,1-dioxide] | < 1000 nM |
| CN1[C@@H](C(=O)Nc2ccc(F)c(Cl)c2)C[C@@H](c2ccc(-c3cnn(C)c3)s2)NS1(=O)=O [HBV-CSU-161-ISO-II, Cis-N-(3-chloro-4-fluorophenyl)-2-methyl-5-(5-(1-methyl-1H-pyrazol-4-yl)thiophen-2-yl)-1,2,6-thiadiazinane-3-carboxamide 1,1-dioxide] | 1000 to 5000 nM |
